Assays:
[1] = Cytotoxicity against human 8901 cells assessed as inhibition of cell proliferation after 48 hrs by MTT assay; type: functional, cell-based
U-87 MG = assay: Cytotoxicity against human U87 cells assessed as inhibition of cell proliferation after 48 hrs by MTT assay; type: functional, cell-based, U-87MG ATCC
[2] = Cytotoxicity against human IOSE-144 cells assessed as inhibition of cell proliferation after 48 hrs by MTT assay; type: cell-based; conditions: IOSE-144, 48 h
A549 [3] = assay: Cytotoxicity against human A549 cells assessed as inhibition of cell proliferation after 48 hrs by MTT assay; type: functional, cell-based; conditions: A549, 48 h
HeLa [4] = assay: Cytotoxicity against human HeLa cells assessed as inhibition of cell proliferation after 48 hrs by MTT assay; type: functional, cell-based
MCF7 = assay: cells; type: functional, cell-based; conditions: Homo sapiens, MCF7, 48 h
Description: Cytotoxicity against human MCF7 cells assessed as inhibition of cell proliferation after 48 hrs by MTT assay

A549 [5] = assay: Potency index, ratio of 5-fluorouracil IC50 to test compound IC50 for human A549 cells; type: functional
HeLa [6] = assay: Potency index, ratio of 5-fluorouracil IC50 to test compound IC50 for human HeLa cells; type: functional

Row | SMILES | IC50 [1] | IC50 (U-87 MG) | IC50 [2] | IC50 (A549 [3]) | IC50 (HeLa [4]) | IC50 (MCF7) | Ratio IC50 (A549 [5]) | Ratio IC50 (HeLa [6])
1 | CC(C)(O)CCC[C@@](C)(O)[C@H]1CC[C@]2(C)[C@@H]1[C@H](O)C[C@@H]1[C@@]3(C)CC[C@H](O)C(C)(C)[C@@H]3CC[C@]12C | 46.5 µM | 25.1 µM | > 100 µM | 27.9 µM | 19.6 µM |  |  | 
2 | COC(C)(C)CCC[C@@](C)(O)[C@H]1CC[C@]2(C)[C@@H]1[C@H](O)C[C@@H]1[C@@]3(C)CC[C@H](O)C(C)(C)[C@@H]3CC[C@]12C | 38.5 µM | 19.5 µM | > 100 µM | 29.3 µM | 29.4 µM | 44.6 µM |  | 
3 | CC(C)(O)CCC[C@@](C)(O)[C@H]1CC[C@]2(C)[C@@H]1C(=O)C[C@@H]1[C@@]3(C)CCC(=O)C(C)(C)[C@@H]3CC[C@]12C | > 100 µM | > 100 µM | > 100 µM | 90 µM | > 100 µM | 65.1 µM |  | 
4 | CC(C)(O)CCC[C@@](C)(O)[C@H]1CC[C@]2(C)[C@@H]1[C@H](O)C[C@@H]1[C@@](C)(CC(=O)O)[C@H](C(C)(C)C(=O)O)CC[C@]12C | > 100 µM | > 100 µM | > 100 µM | > 100 µM | > 100 µM | > 100 µM |  | 
5 | CC1(C)CCC[C@](C)([C@H]2CC[C@]3(C)[C@@H]2[C@H](O)C[C@@H]2[C@@]4(C)Cc5cnoc5C(C)(C)[C@@H]4CC[C@]23C)O1 | > 100 µM | > 100 µM | > 100 µM | 67.3 µM | > 100 µM | > 100 µM |  | 
6 | CC(C)(O)CCC[C@@](C)(O)[C@H]1CC[C@]2(C)[C@@H]1[C@H](O)C[C@@H]1[C@@]3(C)Cc4nccnc4C(C)(C)[C@@H]3CC[C@]12C | 13.2 µM | 38.1 µM | > 100 µM | 8.93 µM | > 100 µM | 17.7 µM | 2.6 | 
7 | COC(C)(C)CCC[C@@](C)(O)[C@H]1CC[C@]2(C)[C@@H]1[C@H](O)C[C@@H]1[C@@]3(C)C=C(O)C(=O)C(C)(C)[C@@H]3CC[C@]12C | 25.9 µM | 20.7 µM | > 100 µM | 21.6 µM | 39 µM | 35.7 µM |  | 
8 | CC(C)(O)CCC[C@@](C)(O)[C@H]1CC[C@]2(C)[C@@H]1[C@H](O)C[C@@H]1[C@@]3(C)C=C(O)C(=O)C(C)(C)[C@@H]3CC[C@]12C | 87.8 µM | 45.4 µM | > 100 µM | 24.3 µM | 50.9 µM | 46.2 µM |  | 
9 | COC(C)(C)CCC[C@@](C)(O)[C@H]1CC[C@]2(C)[C@@H]1[C@H](O)C[C@@H]1[C@@](C)(CC(=O)O)[C@H](C(C)(C)C=O)CC[C@]12C | > 100 µM | > 100 µM | > 100 µM | 85 µM | > 100 µM | > 100 µM |  | 
10 | CC1(C)CCC[C@](C)([C@H]2CC[C@]3(C)[C@@H]2[C@H](O)C[C@@H]2[C@@]4(C)Cc5c([nH]c6ccccc56)C(C)(C)[C@@H]4CC[C@]23C)O1 | > 100 µM | > 100 µM | > 100 µM | > 100 µM | > 100 µM | > 100 µM |  | 
11 | COC(C)(C)CCC[C@@](C)(O)[C@H]1CC[C@]2(C)[C@@H]1C(=O)C[C@@H]1[C@@]3(C)CC[C@H](O)C(C)(C)[C@@H]3CC[C@]12C | 81.3 µM | 32.7 µM | > 100 µM | 37.1 µM | 18 µM | 44.9 µM |  | 
12 | COC(C)(C)CCC[C@@](C)(O)[C@H]1CC[C@]2(C)[C@@H]1C(=O)C[C@@H]1[C@@]3(C)CCC(=O)C(C)(C)[C@@H]3CC[C@]12C | > 100 µM | > 100 µM | > 100 µM | > 100 µM | > 100 µM | 98.5 µM |  | 
13 | CC1(C)CCC[C@](C)([C@H]2CC[C@]3(C)[C@@H]2[C@H](O)C[C@@H]2[C@@]4(C)Cc5nc6ccccc6nc5C(C)(C)[C@@H]4CC[C@]23C)O1 | > 100 µM | > 100 µM | > 100 µM | > 100 µM | > 100 µM | > 100 µM |  | 
14 | CC(C)(O)CCC[C@@](C)(O)[C@H]1CC[C@]2(C)[C@@H]1C(=O)C[C@@H]1[C@@]3(C)Cc4nccnc4C(C)(C)[C@@H]3CC[C@]12C | > 100 µM | > 100 µM | > 100 µM | 19.7 µM | > 100 µM | 39.1 µM |  | 
15 | CC1(C)CCC[C@@](C)(O)[C@H]2CC[C@]3(C)[C@@H]2[C@@H](C[C@@H]2[C@@]4(C)CCC(=O)C(C)(C)[C@@H]4CC[C@]23C)O1 | > 100 µM | 76.4 µM | > 100 µM | 86.4 µM | > 100 µM | 91.9 µM |  | 
16 | CC1(C)CCC[C@](C)([C@H]2CC[C@]3(C)[C@@H]2[C@H](O)C[C@@H]2[C@@]4(C)Cc5nccnc5C(C)(C)[C@@H]4CC[C@]23C)O1 | > 100 µM | > 100 µM | > 100 µM | > 100 µM | > 100 µM | > 100 µM |  | 
17 | CC1(C)CCC[C@](C)([C@H]2CC[C@]3(C)[C@@H]2[C@H](O)C[C@@H]2[C@@](C)(CC(=O)O)[C@H](C(C)(C)C=O)CC[C@]23C)O1 | > 100 µM | > 100 µM | > 100 µM | > 100 µM | > 100 µM | > 100 µM |  | 
18 | Cc1ncc2c(n1)C(C)(C)[C@@H]1CC[C@]3(C)[C@H](C[C@@H](O)[C@@H]4[C@@H]([C@@]5(C)CCCC(C)(C)O5)CC[C@]43C)[C@@]1(C)C2 | > 100 µM | 86.3 µM | > 100 µM | > 100 µM | > 100 µM | 83 µM |  | 
19 | COC(C)(C)CCC[C@@](C)(O)[C@H]1CC[C@]2(C)[C@@H]1[C@H](O)C[C@@H]1[C@@]3(C)CCC(=O)C(C)(C)[C@@H]3CC[C@]12C | 78.6 µM | > 100 µM | > 100 µM | 39.9 µM | > 100 µM | 50.3 µM |  | 
20 | CC(C)(O)CCC[C@@](C)(O)[C@H]1CC[C@]2(C)[C@@H]1[C@H](O)C[C@@H]1[C@@]3(C)CCC(=O)C(C)(C)[C@@H]3CC[C@]12C | > 100 µM | > 100 µM | > 100 µM | 25.7 µM | > 100 µM | 66.6 µM |  | 
21 | CC1(C)CCC[C@](C)([C@H]2CC[C@]3(C)[C@@H]2[C@H](O)C[C@@H]2[C@@]4(C)CC(C=O)C(=O)C(C)(C)[C@@H]4CC[C@]23C)O1 (some centres undefined) | 30.1 µM | 30.6 µM | > 100 µM | 18.5 µM | 31.9 µM | 28.3 µM |  | 
22 | CC1(C)CCC[C@](C)([C@H]2CC[C@]3(C)[C@@H]2[C@H](O)C[C@@H]2[C@@]4(C)Cc5cn[nH]c5C(C)(C)[C@@H]4CC[C@]23C)O1 | 13.5 µM | 26.2 µM | > 100 µM | 9.62 µM | 11.7 µM | 18.9 µM |  | 2.5
23 | CC1(C)CCC[C@](C)([C@H]2CC[C@]3(C)[C@@H]2[C@H](O)C[C@@H]2[C@@]4(C)CC(C#N)=C(O)C(C)(C)[C@@H]4CC[C@]23C)O1 | 25.7 µM | 41.6 µM | > 100 µM | 12.9 µM | 12.7 µM | 29.7 µM |  | 
24 | CC(C)(O)CCC[C@@](C)(O)[C@H]1CC[C@]2(C)[C@@H]1C(=O)C[C@@H]1[C@@]3(C)CC[C@H](O)C(C)(C)[C@@H]3CC[C@]12C | 66.5 µM | > 100 µM | > 100 µM | 50.6 µM | > 100 µM | > 100 µM |  | 
25 | CC1(C)CCC[C@](C)([C@H]2CC[C@]3(C)[C@@H]2[C@H](O)C[C@@H]2[C@@]4(C)Cc5cnc(N)nc5C(C)(C)[C@@H]4CC[C@]23C)O1 | 45.7 µM | 82.6 µM | > 100 µM | 26.9 µM | 69.4 µM | 27.9 µM |  | 
26 | CC1(C)CCC[C@](C)([C@H]2CC[C@]3(C)[C@@H]2[C@H](O)C[C@@H]2[C@@]4(C)CC/C(=N\O)C(C)(C)[C@@H]4CC[C@]23C)O1 | > 100 µM | > 100 µM | > 100 µM | > 100 µM | > 100 µM | > 100 µM |  | 
27 | CC1(C)CCC[C@](C)([C@H]2CC[C@]3(C)[C@@H]2[C@H](O)C[C@@H]2[C@@]4(C)C=C(O)C(=O)C(C)(C)[C@@H]4CC[C@]23C)O1 | 50.1 µM | 20.2 µM | > 100 µM | 40 µM | 25 µM | 23.6 µM |  | 
28 | CC1(C)CCC[C@](C)([C@H]2CC[C@]3(C)[C@@H]2[C@H](O)C[C@@H]2[C@@]4(C)CCC(=O)C(C)(C)[C@@H]4CC[C@]23C)O1 | > 100 µM | 90 µM | > 100 µM | > 100 µM | 66.4 µM | 78.1 µM |  | 
29 | O=c1[nH]cc(F)c(=O)[nH]1 [FLUOROURACIL] | 33.3 µM | 22 µM | 34.8 µM |  | 28.2 µM |  |  | 
30 | CC1(C)CCC[C@](C)([C@H]2CC[C@]3(C)[C@@H]2[C@H](O)C[C@@H]2[C@@]4(C)CC[C@H](O)C(C)(C)[C@@H]4CC[C@]23C)O1 [PANAXADIOL] | > 100 µM | > 100 µM | > 100 µM | 44.6 µM | > 100 µM | 52.6 µM |  | 

From ChEMBL document CHEMBL4368865, “Synthesis, characterization and cytotoxic activity evaluation of ginsengdiol oxidation and nitrogen hybrid derivatives” (Medchemcomm, 2018)
